This is an account of results in paper PMC12426935, “On-Cell Saturation Transfer Difference NMR Spectroscopy on Ion Channels: Characterizing Negative Allosteric Modulator Binding Interactions of P2X7” (Journal of the American Chemical Society, 2025).

Broadly, the IC50 is the concentration needed to halve the response being measured.

Like-named read-outs stand apart in the source and are kept apart here.

The target of one test is T1, mouse P2X7 (mP2X7) (Mus musculus, UniProt Q9Z1M0).
T1 construct: expressed in transfected cells
T1 sequence (Q9Z1M0 1-595): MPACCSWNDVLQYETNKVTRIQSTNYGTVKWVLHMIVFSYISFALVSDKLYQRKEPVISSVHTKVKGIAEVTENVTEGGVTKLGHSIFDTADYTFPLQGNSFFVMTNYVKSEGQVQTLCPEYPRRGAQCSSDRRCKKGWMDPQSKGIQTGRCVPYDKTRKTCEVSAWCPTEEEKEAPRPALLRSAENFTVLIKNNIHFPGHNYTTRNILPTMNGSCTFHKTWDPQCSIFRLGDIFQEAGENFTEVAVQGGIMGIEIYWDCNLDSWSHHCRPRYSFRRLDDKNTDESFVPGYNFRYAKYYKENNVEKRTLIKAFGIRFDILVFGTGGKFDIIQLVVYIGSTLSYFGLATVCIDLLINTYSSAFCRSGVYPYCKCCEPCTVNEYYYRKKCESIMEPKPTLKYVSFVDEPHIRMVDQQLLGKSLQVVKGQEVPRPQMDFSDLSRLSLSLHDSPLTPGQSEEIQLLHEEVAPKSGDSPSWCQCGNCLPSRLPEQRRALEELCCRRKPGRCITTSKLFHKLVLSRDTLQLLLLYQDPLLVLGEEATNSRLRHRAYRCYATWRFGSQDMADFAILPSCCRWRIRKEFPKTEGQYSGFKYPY
In words: fura-2 intracellular calcium assay on HEK-293 stable cell line expressing mouse P2X7. The class given is cell-based. The procedure:
(§1) Genetically edited HEK-293 cells lacking P2Y2 receptors were used to generate stable cell lines expressing human P2X7 (hP2X7), mouse P2X7 (mP2X7), rat P2X7 (rP2X7), or mutants of the hP2X7 NAM site (F88A, M105A, and F103A). Transfection was performed using lipofectamine 2000 (Fisher Scientific), and cells were subjected to Geneticin (800 μg/mL) selection for 2–3 weeks. This was followed by single cell cloning by limiting dilution in 96-well plates. Individual clones were selected for further study based on ATP-induced TO-PRO-3 uptake on a BD Cytoflex flow cytometer. Cell lines were maintained in DMEM:F12 media supplemented with 10% fetal bovine serum (PanBiotech), penicillin and streptomycin (Fisher Scientific) and kept in a humidified incubator with 5% CO2. Stable P2X7-expressing cells were kept under Geneticin selection at a concentration of 400 μg/mL. Passaging was performed twice weekly using 0.25% Trypsin-EDTA (Fisher Scientific).
P2X7 responses were measured by monitoring intracellular calcium responses using fura-2AM loaded cells. Cells were plated at 2–2.5 × 10^4 cells/well the day before experiments in 96-well plates (NUNC) coated with 50 μg/mL poly-D-lysine (Merck Millipore). A loading buffer containing 2 μM fura-2AM (HelloBio) and 250 μM sulfinpyrazone (Merck Millipore) in a low divalent buffer (145 mM NaCl, 5 mM KCl, 0.2 mM CaCl2, 10 mM HEPES, 13 mM glucose, pH 7.3) was added to cells for 45 min at 37 °C. After loading, the buffer was removed and replaced with calcium-containing extracellular solution (145 mM NaCl, 5 mM KCl, 2 mM CaCl2, 10 mM HEPES, 13 mM glucose, pH 7.3). Responses were measured using a Flexstation 3 plate reader (Molecular Devices) with dual excitation wavelengths of 340 and 380 nm and single emission wavelength of 510 nm. The sample interval was 3.5 s, and each well was recorded for 180 s. Fura-2 ratios were calculated in Softmax Pro v5.4; zero baseline was applied, and responses were measured as normalized area under the curve (AUC). […]
(In general: A change in cytosolic calcium serves as a functional read-out for many receptors and channels.)

The next test has as its target T2, human P2X7 (WT hP2X7) (Homo sapiens, UniProt Q99572).
T2 sequence (Q99572 1-595): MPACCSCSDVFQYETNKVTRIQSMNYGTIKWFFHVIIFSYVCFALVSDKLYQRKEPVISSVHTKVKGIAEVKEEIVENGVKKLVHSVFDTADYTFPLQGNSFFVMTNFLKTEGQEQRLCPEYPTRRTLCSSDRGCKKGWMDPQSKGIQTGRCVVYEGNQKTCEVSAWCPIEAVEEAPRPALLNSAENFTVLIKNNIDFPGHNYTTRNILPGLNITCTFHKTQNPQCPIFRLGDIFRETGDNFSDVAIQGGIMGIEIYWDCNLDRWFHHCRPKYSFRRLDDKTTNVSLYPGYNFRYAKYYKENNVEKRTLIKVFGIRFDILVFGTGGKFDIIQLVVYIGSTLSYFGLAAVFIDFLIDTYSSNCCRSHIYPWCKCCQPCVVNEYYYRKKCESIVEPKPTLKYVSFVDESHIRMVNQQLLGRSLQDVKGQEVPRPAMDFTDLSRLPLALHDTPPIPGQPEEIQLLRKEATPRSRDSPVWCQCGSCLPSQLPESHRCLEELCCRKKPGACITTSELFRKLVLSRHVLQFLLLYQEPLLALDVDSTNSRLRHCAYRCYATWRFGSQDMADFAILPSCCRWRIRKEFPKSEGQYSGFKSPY
Nature of the test: fura-2 intracellular calcium assay on HEK-293 stable cell line expressing human P2X7. The class given is cell-based. The procedure: as §1, with “Transfection” for “Genetically edited HEK-293 cells lacking P2Y2 receptors were used to generate stable cell lines expressing human P2X7 (hP2X7), mouse P2X7 (mP2X7), rat P2X7 (rP2X7), or mutants of the hP2X7 NAM site (F88A, M105A, and F103A). Transfection”
P2X7 responses were measured by monitoring intracellular calcium responses using fura-2AM loaded cells. Cells were plated at 2–2.5 × 10^4 cells/well the day before experiments in 96-well plates (NUNC) coated with 50 μg/mL poly-D-lysine (Merck Millipore). […] Responses were measured using a Flexstation 3 plate reader (Molecular Devices) with dual excitation wavelengths of 340 and 380 nm and single emission wavelength of 510 nm. The sample interval was 3.5 s, and each well was recorded for 180 s. Fura-2 ratios were calculated in Softmax Pro v5.4; zero baseline was applied, and responses were measured as normalized area under the curve (AUC). Dose inhibition curves were plotted using GraphPad Prism v6 nonlinear regression (three parameter fit) and log IC50 values reported.

Regarding `O=C(NCC1(N2CCN(c3ccccc3)CC2)CCOCC1)c1cccnc1Sc1ccccc1` [JNJ-47965567], the IC50 was 125 nM at mouse P2X7 (mP2X7) (Mouse P2X7 (Table 1), mean in brackets, n = 3); 26 nM on human P2X7 (WT hP2X7); 9.12 nM at human P2X7 (WT hP2X7) (Human P2X7, species comparison (Table 1), log IC50 ± standard error, n = 3, read-out: Log IC50 (converted)); 9 nM on human P2X7 (WT hP2X7) (Human P2X7, species comparison (Table 1), mean in brackets, n = 3, read-out: mean IC50); 11.9 nM on human P2X7 (WT hP2X7) (WT hP2X7, agonist ATP (Table 2), log IC50 ± standard error, n = 3, read-out: Log IC50 (converted)); 11.7 nM at human P2X7 (WT hP2X7) (WT hP2X7, agonist ATP (Table 2), mean in brackets, n = 3, read-out: mean IC50). Besides, the “difference between hP2X7 and mP2X7 IC50 values” at mouse P2X7 (mP2X7) (mP2X7 vs hP2X7) is given as 13 fold.
